Assay results as given in US20160031889A1, “ANTIVIRAL INDOLO[2,3-B]QUINOXALINE” (VIRONOVA HERPES AB, priority 2013, published 2016).
Where a name gives a salt, the structure may show the parent alone.

Tests used:
[1] = system: herpes simplex 1 virus (HSV1); assay: Plaque Assay 1 (plaque counting); type: cell-based; settings: for plaques seen in plaque assay: concentration and dilution not stated
Method: The compounds prepared in Examples 1-4 were tested in a plaque assay using herpes simplex 1 virus (HSV1), and acyclovir (ACV) as a reference compound. […] The plaque counting results obtained when using the compounds of Examples 1 and 4, and the reference compound ACV, respectively, are shown in Tables 1-3.

HSV-1 = settings: in vitro; cited from earlier work

Structure (SMILES)	plaque count ([1]; compound 1 uM, 10^1 dilution)	plaque count ([1]; compound 5 uM, 10^1 dilution)	plaque count ([1]; compound 5 uM, 10^2 dilution)	plaques seen in plaque assay [1]	also measured
Br.C=CC[N+](C)(C)CCn1c2ccccc2c2nc3cc(C)c(C)cc3nc21	–	–	–	–	melting point: 248 to 252 °C
Nc1nc2c(ncn2COCCO)c(=O)[nH]1 [ACV, acyclovir, reference compound]	15	8	1	–	plaque count ([1]; compound 25 uM, 10^1 dilution): 2; selectivity ratio for the inhibitory activity against HSV-1 (HSV-1): about 2000
Cc1cc2nc3c4ccccc4n(CC[N+](C)(C)C)c3nc2cc1C.[I-] [Example 1, 2,3-Dimethyl-6-[2-(trimethylamino)ethyl]-6H-indolo[2,3-b]quinoxaline iodide]	19	8	2	–	plaque count ([1]; compound 1 uM, 10^2 dilution): 3; plaque count ([1]; compound 1 uM, 10^3 dilution): 1
Cc1cc2nc3c4cc(Cl)ccc4n(CC(=O)NCCN(C)C)c3nc2cc1C [Example 2, 9-chloro-N-[2-(dimethylamino)ethyl]-2,3-dimethyl-6H-Indolo[2,3-b]quinoxaline-6-acetamide]	–	–	–	no plaques could be seen	–
Cc1cc2nc3c4cc(Cl)ccc4n(CC(=S)NCCN(C)C)c3nc2cc1C [Example 3, 9-chloro-N-[2-(dimethylamino)ethyl]-2,3-dimethyl-6H-Indolo[2,3-b]quinoxaline-6-thioacetamide]	–	–	–	no plaques could be seen	–
Cc1cc2nc3c4ccccc4n(CC[N+](C)(C)C)c3nc2cc1C [Example 4, 2,3-dimethyl-6-[2-(trimethylamino)ethyl]-6H-indolo[2,3-b]quinoxaline methyl sulfate]	11	2	–	–	–
